This is an account of results in patent publication EP2929883A1, “Pyrazole derivatives as dihydroorotate dehydrogenase (DHODH) inhibitors” (INSTITUT PASTEUR, priority 2014, dated 2015).

In brackets after ≈: the same amount, converted by molar mass.

In the assay the test system is measles virus. The experiment in a line: microbe, parasite or virus in culture. The settings on record: Measles morbillivirus, 24 h.

Turning to `CCOc1nn(-c2ccccn2)c(C)c1-c1ccc(C(F)(F)F)cc1` [example 159, 2-(3-ethoxy-5-methyl-4-(4-(trifluoromethyl)phenyl)-1H-pyrazol-1-yl)pyridine], the MIC50 was above 5 µM. As to `CCOc1nn(-c2ncc(OC)cn2)c(C)c1Cc1ccccc1` [example 112, 2-(4-benzyl-3-ethoxy-5-methyl-1H-pyrazol-1-yl)-5-methoxypyrimidine], the MIC50 lay in the range of 0.5 to 5 µM (≈ 0.162 to 1.62 µg/mL). Then `COc1cc(C2CC2)cnc1-n1cc(Oc2ccccc2F)c(OC(C)C)n1` [example 185, 5-cyclopropyl-2-(4-(2-fluorophenoxy)-3-isopropoxy-1H-pyrazol-1-yl)-3-methoxypyridine], with 0.05 to 0.5 µM (≈ 0.0192 to 0.192 µg/mL); and `CCOc1nn(-c2ccc(C(C)=O)cn2)c(C)c1Cc1ccccc1` [example 88, 1-(6-(4-benzyl-3-ethoxy-5-methyl-1H-pyrazol-1-yl)pyridin-3-yl)ethanone], with above 5 µM.

As to `CCc1cnc(-n2nc(OC(C)C)c(Oc3cccc(F)c3F)c2C)nc1` [example 77, 2-(4-(2,3-difluorophenoxy)-3-isopropoxy-5-methyl-1H-pyrazol-1-yl)-5-ethylpyrimidine], the MIC50 fell in the range of 0.05 to 0.5 µM (≈ 0.0187 to 0.187 µg/mL). In the case of `COc1cc(C2CC2)cnc1-n1nc(OC(C)C)c(Oc2c(F)cccc2F)c1C` [example 189, 5-cyclopropyl-2-(4-(2,6-difluorophenoxy)-3-isopropoxy-5-methyl-1H-pyrazol-1-yl)-3-methoxypyridine] it was 0.0005 to 0.05 µM (≈ 0.000208 to 0.0208 µg/mL); in that of `CCOc1nn(-c2ccccn2)c(C)c1Cc1cccc(Cl)c1` [example 163, 2-(4-(3-chlorobenzyl)-3-ethoxy-5-methyl-1H-pyrazol-1-yl)pyridine], above 5 µM.

The compound `Cc1c(Oc2c(F)cccc2F)c(OC(C)C)nn1-c1ccc(C(C)(C)O)cn1` [example 84, 2-(6-(4-(2,6-difluorophenoxy)-3-isopropoxy-5-methyl-1H-pyrazol-1-yl)pyridin-3-yl)propan-2-ol] had an MIC50 of 0.05 to 0.5 µM (≈ 0.0202 to 0.202 µg/mL).

On to `Cc1c(Oc2c(O)cccc2F)c(OC(C)C)nn1-c1ncc(C2CC2)cc1O` [example 188, 5-cyclopropyl-2-(4-(2-fluoro-6-hydroxyphenoxy)-3-isopropoxy-5-methyl-1H-pyrazol-1-yl)pyridin-3-ol], for which the MIC50 lay in the range of 0.0005 to 0.05 µM (≈ 0.0002 to 0.02 µg/mL). In turn, `CCOc1nn(-c2ncc(CC)cn2)c(C)c1I` [example 106, 2-(3-ethoxy-4-iodo-5-methyl-1H-pyrazol-1-yl)-5-ethylpyrimidine] came in with an MIC50 above 5 µM. Then `Cc1c(Oc2c(F)cccc2F)c(OC(C)C)nn1-c1ncc(Br)cc1F` [example 86, 5-bromo-2-(4-(2,6-difluorophenoxy)-3-isopropoxy-5-methyl-1H-pyrazol-1-yl)-3-fluoropyridine], with 0.05 to 0.5 µM (≈ 0.0221 to 0.221 µg/mL); and `CC(C)Oc1nn(-c2ccc(C3CC3)cn2)cc1Oc1ccccc1` [example 71, 5-cyclopropyl-2-(3-isopropoxy-4-phenoxy-1H-pyrazol-1-yl)pyridine], with 0.05 to 0.5 µM (≈ 0.0168 to 0.168 µg/mL). For `CC(C)Oc1nn(-c2ccc(C3CC3)cn2)c(Cl)c1Oc1ccccc1` [example 191, 2-(5-chloro-3-isopropoxy-4-phenoxy-1H-pyrazol-1-yl)-5-cyclopropylpyridine], the MIC50 lay in the range of 0.05 to 0.5 µM (≈ 0.0185 to 0.185 µg/mL). In the case of `CCOc1nn(-c2ccc(Br)cn2)c(C)c1Cc1ccccc1` [example 41, 2-(4-benzyl-3-ethoxy-5-methyl-1H-pyrazol-1-yl)-5-bromopyridine] it was above 5 µM; in that of `CCOc1nn(-c2ccc(OC)cn2)c(C)c1Cc1ccccc1` [example 125, 2-(4-benzyl-3-ethoxy-5-methyl-1H-pyrazol-1-yl)-5-methoxypyridine], 0.5 to 5 µM (≈ 0.162 to 1.62 µg/mL); in that of `Cc1c(Oc2ccccc2F)c(OC(C)C)nn1-c1ncc(C2CC2)cc1C#N` [example 52, 5-cyclopropyl-2-(4-(2-fluorophenoxy)-3-isopropoxy-5-methyl-1H-pyrazol-1-yl)nicotinonitrile], 0.05 to 0.5 µM (≈ 0.0196 to 0.196 µg/mL). Compound `CCOc1nn(-c2ncc(Br)cc2F)c(C)c1Cc1ccccc1` [example 40, 2-(4-benzyl-3-ethoxy-5-methyl-1H-pyrazol-1-yl)-5-bromo-3-fluoropyridine] came in with an MIC50 of 0.5 to 5 µM (≈ 0.195 to 1.95 µg/mL).
